According to the supplement of paper PMC13207355:

How the values were obtained:
Settings in all cases: exposure time: 72 h
E31 [1] = patient-derived glioblastoma stem cells of proneural subtype; assay: phenotypic distance (Euclidean, principal components) from DMSO controls (arbitrary units); higher = stronger morphological change
E28 [2] = patient-derived glioblastoma stem cells of classical subtype; assay: as above
E57 [3] = patient-derived glioblastoma stem cells of mesenchymal subtype; assay: as above
FT3469 [4] = normal neural stem cell line; assay: as above
E21 [5] = patient-derived glioblastoma stem cells of mesenchymal subtype; assay: as above
E13 [6] = patient-derived glioblastoma stem cells of classical subtype; assay: as above
E34 [7] = patient-derived glioblastoma stem cells of proneural subtype; assay: as above
E31 [8] = assay: surviving fraction (nuclei count normalised to DMSO); higher = more cells surviving (less toxic)
E28 [9] = assay: as above
E57 [10] = assay: as above
FT3469 [11] = assay: as above
E21 [12] = assay: as above
E13 [13] = assay: as above
E34 [14] = assay: as above
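Wherever phenotypic distance (Euclidean, principal components) from DMSO controls is given: cell Painting imaging in 384-well plates, CellProfiler features reduced to at least 20 principal components, Euclidean distance versus same-plate DMSO vehicle wells (0.1% v/v), median over six images per well.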
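Wherever surviving fraction (nuclei count normalised to DMSO) is given: nuclei counted by high-content imaging of Hoechst-stained cells in laminin-coated 384-well plates, relative to 0.1% DMSO vehicle wells, with staurosporine as cell-death control.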

Nc1ccc(-c2ccc3ncc4ccc(=O)n(-c5cccc(C(F)(F)F)c5)c4c3c2)cn1 [Torin2]
Settings	phenotypic distance	surviving fraction
E13 [6], 4.1 nM	1.33	–
E13 [6], 12.3 nM	2.1	–
E13 [6], 37 nM	2.69	–
E13 [6], 111.1 nM	3.25	–
E13 [6], 333.3 nM	4.2	–
E13 [6], 1000 nM	4.27	–
E13 [6], 3000 nM	4.72	–
E13 [13], 4.1 nM	–	0.816
E13 [13], 12.3 nM	–	0.728
E13 [13], 37 nM	–	0.628
E13 [13], 111.1 nM	–	0.537
E13 [13], 333.3 nM	–	0.467
E13 [13], 1000 nM	–	0.434
E13 [13], 3000 nM	–	0.387
E21 [5], 4.1 nM	1.71	–
E21 [5], 12.3 nM	2.07	–
E21 [5], 37 nM	2.44	–
E21 [5], 111.1 nM	3.36	–
E21 [5], 333.3 nM	6.2	–
E21 [5], 1000 nM	4.67	–
E21 [5], 3000 nM	5.09	–
E21 [12], 4.1 nM	–	0.939
E21 [12], 12.3 nM	–	0.836
E21 [12], 37 nM	–	0.924
E21 [12], 111.1 nM	–	0.595
E21 [12], 333.3 nM	–	0.326
E21 [12], 1000 nM	–	0.31
E21 [12], 3000 nM	–	0.252
E28 [2], 4.1 nM	1.23	–
E28 [2], 12.3 nM	2.35	–
E28 [2], 37 nM	2.78	–
E28 [2], 111.1 nM	3.06	–
E28 [2], 333.3 nM	2.87	–
E28 [2], 1000 nM	3.67	–
E28 [2], 3000 nM	3.52	–
E28 [9], 4.1 nM	–	0.829
E28 [9], 12.3 nM	–	0.687
E28 [9], 37 nM	–	0.705
E28 [9], 111.1 nM	–	0.526
E28 [9], 333.3 nM	–	0.534
E28 [9], 1000 nM	–	0.417
E28 [9], 3000 nM	–	0.324
E31 [1], 4.1 nM	1.91	–
E31 [1], 12.3 nM	2.08	–
E31 [1], 37 nM	3.12	–
E31 [1], 111.1 nM	4.26	–
E31 [1], 333.3 nM	5.33	–
E31 [1], 1000 nM	5.33	–
E31 [1], 3000 nM	6.15	–
E31 [8], 4.1 nM	–	0.743
E31 [8], 12.3 nM	–	0.669
E31 [8], 37 nM	–	0.612
E31 [8], 111.1 nM	–	0.386
E31 [8], 333.3 nM	–	0.26
E31 [8], 1000 nM	–	0.234
E31 [8], 3000 nM	–	0.102
E34 [7], 4.1 nM	1.56	–
E34 [7], 12.3 nM	2.42	–
E34 [7], 37 nM	2.76	–
E34 [7], 111.1 nM	3.31	–
E34 [7], 333.3 nM	3.09	–
E34 [7], 1000 nM	2.85	–
E34 [7], 3000 nM	3.68	–
E34 [14], 4.1 nM	–	0.986
E34 [14], 12.3 nM	–	0.84
E34 [14], 37 nM	–	0.809
E34 [14], 111.1 nM	–	0.796
E34 [14], 333.3 nM	–	0.623
E34 [14], 1000 nM	–	0.471
E34 [14], 3000 nM	–	0.424
E57 [3], 4.1 nM	1.19	–
E57 [3], 12.3 nM	1.65	–
E57 [3], 37 nM	2.17	–
E57 [3], 111.1 nM	3.47	–
E57 [3], 333.3 nM	4.27	–
E57 [3], 1000 nM	5.35	–
E57 [3], 3000 nM	8.06	–
E57 [10], 4.1 nM	–	0.892
E57 [10], 12.3 nM	–	0.74
E57 [10], 37 nM	–	0.659
E57 [10], 111.1 nM	–	0.548
E57 [10], 333.3 nM	–	0.424
E57 [10], 1000 nM	–	0.302
E57 [10], 3000 nM	–	0.148
FT3469 [4], 4.1 nM	1.78	–
FT3469 [4], 12.3 nM	2	–
FT3469 [4], 37 nM	2.85	–
FT3469 [4], 111.1 nM	2.71	–
FT3469 [4], 333.3 nM	3.04	–
FT3469 [4], 1000 nM	2.81	–
FT3469 [4], 3000 nM	3.65	–
FT3469 [11], 4.1 nM	–	0.978
FT3469 [11], 12.3 nM	–	0.925
FT3469 [11], 37 nM	–	0.73
FT3469 [11], 111.1 nM	–	0.685
FT3469 [11], 333.3 nM	–	0.769
FT3469 [11], 1000 nM	–	0.685
FT3469 [11], 3000 nM	–	0.527

CCCCCCCCCCCCCC(=O)O[C@@H]1[C@@H](C)[C@@]2(O)[C@@H](C=C(CO)C[C@]3(O)C(=O)C(C)=C[C@@H]23)[C@@H]2C(C)(C)[C@]12OC(C)=O [Phorbol 12-myristate 13-acetate]
Settings	phenotypic distance	surviving fraction
E13 [6], 4.1 nM	2.62	–
E13 [6], 12.3 nM	2.5	–
E13 [6], 37 nM	2.61	–
E13 [6], 111.1 nM	2.82	–
E13 [6], 333.3 nM	1.86	–
E13 [6], 1000 nM	2.26	–
E13 [6], 3000 nM	2.58	–
E13 [13], 4.1 nM	–	0.681
E13 [13], 12.3 nM	–	0.64
E13 [13], 37 nM	–	0.728
E13 [13], 111.1 nM	–	0.596
E13 [13], 333.3 nM	–	0.708
E13 [13], 1000 nM	–	0.576
E13 [13], 3000 nM	–	0.47
E21 [5], 4.1 nM	2.4	–
E21 [5], 12.3 nM	2.57	–
E21 [5], 37 nM	2.24	–
E21 [5], 111.1 nM	2.1	–
E21 [5], 333.3 nM	2.01	–
E21 [5], 1000 nM	1.76	–
E21 [5], 3000 nM	6.77	–
E21 [12], 4.1 nM	–	0.677
E21 [12], 12.3 nM	–	0.88
E21 [12], 37 nM	–	0.786
E21 [12], 111.1 nM	–	0.68
E21 [12], 333.3 nM	–	0.75
E21 [12], 1000 nM	–	0.775
E21 [12], 3000 nM	–	0.0234
E28 [2], 4.1 nM	2.11	–
E28 [2], 12.3 nM	1.89	–
E28 [2], 37 nM	1.72	–
E28 [2], 111.1 nM	1.44	–
E28 [2], 333.3 nM	1.52	–
E28 [2], 1000 nM	1.21	–
E28 [2], 3000 nM	4.49	–
E28 [9], 4.1 nM	–	0.75
E28 [9], 12.3 nM	–	0.65
E28 [9], 37 nM	–	0.725
E28 [9], 111.1 nM	–	0.795
E28 [9], 333.3 nM	–	0.815
E28 [9], 1000 nM	–	0.668
E28 [9], 3000 nM	–	0.383
E31 [1], 4.1 nM	3.22	–
E31 [1], 12.3 nM	3.36	–
E31 [1], 37 nM	2.74	–
E31 [1], 111.1 nM	1.67	–
E31 [1], 333.3 nM	1.98	–
E31 [1], 1000 nM	1.94	–
E31 [1], 3000 nM	6.13	–
E31 [8], 4.1 nM	–	1.07
E31 [8], 12.3 nM	–	1.06
E31 [8], 37 nM	–	1.23
E31 [8], 111.1 nM	–	1.01
E31 [8], 333.3 nM	–	1.07
E31 [8], 1000 nM	–	0.994
E31 [8], 3000 nM	–	0.0149
E34 [7], 4.1 nM	4.26	–
E34 [7], 12.3 nM	4.21	–
E34 [7], 37 nM	3.53	–
E34 [7], 111.1 nM	3.9	–
E34 [7], 333.3 nM	2.78	–
E34 [7], 1000 nM	2.96	–
E34 [7], 3000 nM	4.34	–
E34 [14], 4.1 nM	–	0.524
E34 [14], 12.3 nM	–	0.516
E34 [14], 37 nM	–	0.618
E34 [14], 111.1 nM	–	0.488
E34 [14], 333.3 nM	–	0.688
E34 [14], 1000 nM	–	0.48
E34 [14], 3000 nM	–	0.478
E57 [3], 4.1 nM	7.04	–
E57 [3], 12.3 nM	6.41	–
E57 [3], 37 nM	5.79	–
E57 [3], 111.1 nM	8.21	–
E57 [3], 333.3 nM	6.38	–
E57 [3], 1000 nM	6.18	–
E57 [3], 3000 nM	11.1	–
E57 [10], 4.1 nM	–	0.331
E57 [10], 12.3 nM	–	0.32
E57 [10], 37 nM	–	0.374
E57 [10], 111.1 nM	–	0.233
E57 [10], 333.3 nM	–	0.369
E57 [10], 1000 nM	–	0.367
E57 [10], 3000 nM	–	0.108
FT3469 [4], 4.1 nM	3.13	–
FT3469 [4], 12.3 nM	2.56	–
FT3469 [4], 37 nM	3.38	–
FT3469 [4], 111.1 nM	2.45	–
FT3469 [4], 333.3 nM	1.86	–
FT3469 [4], 1000 nM	2.16	–
FT3469 [4], 3000 nM	4.11	–
FT3469 [11], 4.1 nM	–	0.75
FT3469 [11], 12.3 nM	–	0.728
FT3469 [11], 37 nM	–	0.729
FT3469 [11], 111.1 nM	–	0.701
FT3469 [11], 333.3 nM	–	0.832
FT3469 [11], 1000 nM	–	0.791
FT3469 [11], 3000 nM	–	0.571
